ChEMBL document CHEMBL4651402, “Screening of ~5500 FDA-approved drugs and clinical candidates for anti-SARS-CoV-2 activity” (2021)

System: SARS-CoV-2
Assay: microbe, parasite or virus in culture
Settings: Severe acute respiratory syndrome coronavirus 2, Vero C1008, 48 h

Structure (SMILES)	IC50	IC50 (read-out: pIC50 (converted))
CCCCC1C(=O)NC(=O)N(C2CCCCC2)C1=O (stereo not given) [BUCOLOME]	> 20 µM	> 20 µM
Cn1cc(C(=O)[C@@H]2CCc3[nH]cnc3C2)c2ccccc21 [RAMOSETRON]	> 20 µM	> 20 µM
CCc1nc2c(N)nc3ccccc3c2n1CCCCNS(C)(=O)=O [CPG-52852]	> 20 µM	> 20 µM
CCOc1ccc(NC(=O)CC(C)O)cc1 (stereo not given) [BUCETIN]	> 20 µM	> 20 µM
O=C1C(Cl)=C(Cl)C(=O)c2c(O)ccc(O)c21	> 20 µM	> 20 µM
O=c1cccc2n1CC1CC2CN2CCCCC12 (stereo not given)	> 20 µM	> 20 µM
O=C(Nc1ccc(C(=O)O)c(O)c1)c1ccccc1 [BENZOYLPAS]	> 20 µM	> 20 µM
CC1(O)CCOC(=O)C1 (stereo not given)	> 20 µM	> 20 µM
CCCCC1OC(=O)c2ccccc21 (stereo not drawn) [RAC-3-N-BUTYLPHTHALIDE]	> 20 µM	> 20 µM
O=C(O)c1cccc(-c2cccc(NCCNC[C@H](O)c3cccc(Cl)c3)c2)c1 [SOLABEGRON]	> 20 µM	> 20 µM
NC[C@@H]1O[C@H](O[C@H]2[C@@H](O)[C@H](O[C@@H]3[C@@H](O)[C@H](N)C[C@H](N)[C@H]3O[C@H]3O[C@H](CN)[C@@H](O)[C@H](O)[C@H]3N)O[C@@H]2CO)[C@H](N)[C@@H](O)[C@@H]1O [FRAMYCETIN]	> 20 µM	> 20 µM
O=C(O)CNC(=O)C(CS)Cc1ccccc1 (stereo not given) [THIORPHAN]	> 20 µM	> 20 µM
CN(C)c1ccc(O)c2c1C[C@H]1C[C@H]3[C@H](N(C)C)C(O)=C(C(N)=O)C(=O)[C@@]3(O)C(O)=C1C2=O [MINOCYCLINE]	> 20 µM	> 20 µM
Cc1cc(O)cc(C)c1Cl [CHLOROXYLENOL]	> 20 µM	> 20 µM
OCCN(CCO)c1nc(N2CCCCC2)c2nc(N(CCO)CCO)nc(N3CCCCC3)c2n1 [DIPYRIDAMOLE]	> 20 µM	> 20 µM
NCCc1ccc(O)c(O)c1 [DOPAMINE]	> 20 µM	> 20 µM
Oc1c(Cl)cc(Cl)c2cccnc12 [CHLOROXINE]	> 20 µM	> 20 µM
O=C1Nc2ccc(Cl)cc2C(c2ccccc2)=NC1O (stereo not given) [OXAZEPAM]	> 20 µM	> 20 µM

Structure (SMILES)	IC50	IC50 (read-out: pIC50 (converted))
CCN(CC)C(=O)N[C@@H]1CC2c3cccc4[nH]cc(c34)CC2N(C)C1 (stereo not given in full)	> 20 µM	> 20 µM
Cc1cccc(Nc2ccncc2S(=O)(=O)NC(=O)NC(C)C)c1 [TORSEMIDE]	> 20 µM	> 20 µM
Cc1[nH]cnc1CN1CCc2c(c3ccccc3n2C)C1=O [ALOSETRON]	> 20 µM	> 20 µM
CC[C@H](NC(=O)[C@H](C)NC)C(=O)N1C[C@@H](O)C[C@H]1Cc1c(-c2[nH]c3cc(F)ccc3c2C[C@@H]2C[C@H](O)CN2C(=O)[C@H](CC)NC(=O)[C@H](C)NC)[nH]c2cc(F)ccc12 [BIRINAPANT]	> 20 µM	> 20 µM
CC(C)OC(=O)C1(c2ccccc2)CCN(C)CC1 [PROPERIDINE]	> 20 µM	> 20 µM
Cc1cccc(Cl)c1NC(=O)CCN1CCC[C@H]2CCC[C@@H]21	> 20 µM	> 20 µM
NNC(=O)CN1C(=O)CN=C(c2ccccc2)c2cc(Br)ccc21	> 20 µM	> 20 µM
CCOC(C(=O)OCCN(C)C)(c1ccccc1)c1ccccc1 [DIMENOXADOL]	> 20 µM	> 20 µM
CC(C)[C@H](N)C(=O)O[C@@H]1[C@@H](CO)O[C@@H](n2ccc(N)nc2=O)[C@]1(C)O [VALOPICITABINE]	> 20 µM	> 20 µM
CC[N@@+]1(C)[C@@H]2CC[C@H]1C[C@@H](OC(=O)[C@]1(c3ccccc3)CC[C@H](C(=O)O[C@H]3C[C@H]4CC[C@@H](C3)[N@+]4(C)CC)c3ccccc31)C2	> 20 µM	> 20 µM
CCC[C@@H]1C[C@@H](C(=O)N[C@@H]([C@H]2O[C@H](SC)[C@H](O)[C@@H](O)[C@@H]2O)[C@@H](C)O)N(C)C1	> 20 µM	> 20 µM
COc1ccc(C(Cl)=C(c2ccc(OC)cc2)c2ccc(OC)cc2)cc1 [CHLOROTRIANISENE]	> 20 µM	> 20 µM
CCCCC/C=C/C/C=C/CCCCCCCC(=O)NC(C)c1ccccc1 (stereo not given) [MELINAMIDE]	> 20 µM	> 20 µM
O=C1CN=C(c2ccccc2)c2c(sc3c2CCCC3)N1 [BENTAZEPAM]	> 20 µM	> 20 µM
C[C@H](CCC(=O)O)[C@H]1CC[C@H]2[C@@H]3[C@@H](O)C[C@@H]4C[C@H](O)CC[C@]4(C)[C@H]3CC[C@]12C [URSODIOL]	> 20 µM	> 20 µM
COc1cc2c(c(OC)c1OC)-c1c(cc3c(c1OC)OCO3)C[C@H](C)[C@@](C)(O)C2 [BESIGOMSIN]	> 20 µM	> 20 µM
CCNC(=O)NCCCOc1cccc(CN2CCCCC2)c1 [DALCOTIDINE]	> 20 µM	> 20 µM
